Assay results published in patent US9248162B2, “Factor H for treatment of rheumatoid arthritis” (Baxter International Inc., priority 2013, dated 2016).
“And” between values parts separate entries of the source, which are not always exact repeats. Identical values can stand only once. Marks after values point to notes of the source that are not given here.

Legend:
Format in all cases: in vivo, Balb C mice
[1] = tested on: collagen antibody-induced arthritis; test: Mouse CAIA: clinical score; design: key to Clinical Score, Summary (significance): ns: = not significant; *: = P < 0.05; **: = P < 0.01; ***: = P < 0.001
Experimental: (§1) The mice were treated with ArthritoMAb (anti-collagen) antibody cocktail (2 mg, i.v.) on day 1, followed 7 days later with an injection of LPS (50 μg, i.p.). On day 8, hind paw volumes were measured for each animal and distributed to various treatment groups.
(§2) Factor H was formulated in 20 mM Citrate, 150 mM NaCl, pH=6. […] Ethanercept was formulated as Enbrel™ in saline. Vehicle was formulated in 20 mM Citrate, 150 mM NaCl, pH=6. […] The dosing volume for Factor H and BX12 was 25 mL/kg (0.500 mL/20 g mouse) and adjusted accordingly for body weight.
(§3) Dosing with the different agents was started on day 8 as described in Table 3.

[2] = tested on: collagen antibody-induced arthritis; test: Mouse CAIA: ankle histology scores (H & E); design: key to Score From H & E: Inflammation: 0: normal; 1: minimal infiltration of inflammatory cells in periarticular tissue; 2: mild infiltration; 3: moderate infiltration with moderate edema; 4: marked infiltration with marked edema; 5: severe infiltration with severe edema; key to Exostosis, Summary (significance) / Composite, Summary (significance) / Pannus, Summary (significance) / Cartilage, Summary (significance) / Inflammation, Summary (significance): ns: = not significant; *: = P < 0.05; **: = P < 0.01; ***: = P < 0.001; Composite Biohistopathology Score, group value / Composite Biohistopathology Score: scale not given here
Experimental: as §1, with “Balb C mice (n=10 per cohort) were used to determine the efficacy of Factor H (FH) during […]. The” for “The”
as §3
(§4) Hind paw volumes were measured on day 8, 11, 12, 13, 15, 19 and 22 (endpoint). The age at start date was 7 to 9 weeks. Body weights were measured bi-weekly to the endpoint (Table 4). At the endpoint, tissue samples were processed for histology and submitted to a pathologist for independent analysis. Sampling 1 was performed at the endpoint. The hind limbs were preserved in 10% formalin. Sampling 2 was performed at the endpoint for group 4 animals. Blood was collected by terminal cardiac puncture. The blood was processed for anti-coagulant. The kidneys were additionally preserved in formalin and followed with 70% EtOH. Samples were scored for inflammation, pannus (granulation tissue), cartilage damage, bone resorption and exostosis (Table 5).

[3] = tested on: collagen antibody-induced arthritis; test: Mouse CAIA: hind paw / footpad volume (swelling, disease burden); design: Mean Disease Burden / Total Disease Burden (AUC) / Hind Limb Volume, Mean Diff. / Total Disease, Mean Diff.: unit not given here; details: for % Disease Suppression / Total Disease Burden (AUC): days 8-22
Experimental: as §1, with “Balb C mice (n=10 per cohort) were used to determine the efficacy of Factor H (FH) during […]. The” for “The”
as §2, §3
as §4, with “The” for “Hind paw volumes were measured on day 8, 11, 12, 13, 15, 19 and 22 (endpoint). The”

[4] = Vehicle vs agent, Dunn's Multiple Comparison Test
[5] = ankle, group mean ± spread, 10 animals, score 0-5
[6] = histopathology score, graded 1-5, hind limbs at endpoint, group value
[7] = Vehicle vs agent, Dunnett's Multiple Comparison Test

Etanercept
Clinical Score, Difference in rank sum [1, 4]: 3.55
Clinical Score, Summary (significance) [1, 4]: ns
Max Clin Score, Mean ([1]; group mean, n=10): 39.60
Clinical Score, Day of Study 8, Mean ([1]; group mean, n=10, day 8 (start of dosing)): 5.50
Clinical Score, Day of Study 11, Mean ([1]; group mean, n=10, day 11): 19.60
Clinical Score, Day of Study 12, Mean ([1]; group mean, n=10, day 12): 37.10
Clinical Score, Day of Study 13, Mean ([1]; group mean, n=10, day 13): 35.50
Clinical Score, Day of Study 16, Mean ([1]; group mean, n=10, day 16 (Jul. 1, 2011)): 31.50
Clinical Score, Day of Study 19, Mean ([1]; group mean, n=10, day 19): 28.40
Clinical Score, Day of Study 22, Mean ([1]; group mean, n=10, day 22 (endpoint)): 25.70
Day (of Max Clin Score) ([1]; individual animal, day of study): 12 (8×) and 22 and 16
Max Clin Score ([1]; individual animal, maximum over days 8 to 22): 32 and 50 (2×) and 45 and 46 and 35 and 30 and 20 and 34 and 52
Clinical Score, Day of Study 8 ([1]; individual animal, score 0-60, day 8 (start of dosing)): 0 (5×) and 15 and 10 (4×)
Clinical Score, Day of Study 11 ([1]; individual animal, score 0-60, day 11): 12 (2×) and 34 and 28 and 4 and 15 and 43 and 11 and 10 and 27
Clinical Score, Day of Study 12 ([1]; individual animal, score 0-60, day 12): 32 and 50 (2×) and 45 and 27 and 35 and 26 and 20 and 34 and 52
Clinical Score, Day of Study 13 ([1]; individual animal, score 0-60, day 13): 32 and 50 and 45 (2×) and 21 and 35 and 30 and 15 and 34 and 48
Clinical Score, Day of Study 16 ([1]; individual animal, score 0-60, day 16 (Jul. 1, 2011)): 32 and 49 and 21 and 48 and 25 and 45 and 15 and 10 and 24 and 46
Clinical Score, Day of Study 19 ([1]; individual animal, score 0-60, day 19): 32 and 48 and 34 and 25 and 5 and 45 and 20 and 10 and 26 and 37
Clinical Score, Day of Study 22 ([1]; individual animal, score 0-60, day 22 (endpoint)): 32 and 41 and 34 and 16 (2×) and 40 and 19 and 10 and 23 and 26
Day (of Max Clin Score), Mean ([1]; listed as 'Mean', n=10, day of study): 12.00
Mean Maximum Clinical Score ([1]; scored from 0 to 60 (15/limb), sum of 4 limbs, vehicle 45.4): 39.6^ns
Cartilage, Difference in rank sum [2, 4]: −1.5
Cartilage, Summary (significance) [2, 4]: ns
Composite, Difference in rank sum [2, 4]: 2.1
Composite, Summary (significance) [2, 4]: ns
Exostosis, Difference in rank sum [2, 4]: 5.8
Exostosis, Summary (significance) [2, 4]: ns
Inflammation, Difference in rank sum [2, 4]: 3.6
Inflammation, Summary (significance) [2, 4]: ns
Pannus, Difference in rank sum [2, 4]: 0.3
Pannus, Summary (significance) [2, 4]: ns
Composite Biohistopathology Score, group value ([2]; ankle, group mean ± spread, 10 animals): 6.0 ± 2.1
Score From H & E: Bone Resorption, group value [2, 5]: 1.0 ± 0.4
Score From H & E: Cartilage Damage, group value [2, 5]: 0.7 ± 0.3
Score From H & E: Inflammation, group value [2, 5]: 1.5 ± 0.5
Score From H & E: Pannus, group value [2, 5]: 1.4 ± 0.5
Score From H & E: Periosteal/Exostotic Changes, group value [2, 5]: 1.4 ± 0.6
Composite Biohistopathology Score ([2]; ankle, individual animal, endpoint day 22, listed as Group 3): 11 (2×) and 0 (4×) and 16 and 15 and 1 and 4
Score From H & E: Inflammation ([2]; ankle, individual animal, score 0-5, endpoint day 22, listed as Group 3): 3 (4×) and 0 (4×) and 1 and 2
Composite Score ([2]; histopathology composite, hind limbs at endpoint, group value): 6.0 ± 2.1^ns
Bone Resorption [2, 6]: 1.0 ± 0.4^ns
Cartilage Damage [2, 6]: 0.7 ± 0.3^ns
Exostosis [2, 6]: 1.4 ± 0.6^ns
Inflammation [2, 6]: 1.5 ± 0.5^ns
Pannus [2, 6]: 1.4 ± 0.5^ns
Hind Limb Volume, Mean Diff. [3, 7]: 0.08143
Hind Limb Volume, Summary (significance) [3, 7]: ** (= P < 0.01)
Total Disease, Mean Diff. [3, 7]: 1.19
Total Disease, Summary (significance) [3, 7]: ** (= P < 0.01)
Hind paw volume ([3]; day 8 of study, group mean, n 10): 0.35 mL
Hind paw volume ([3]; day 8 of study, individual animal): 0.41 mL and 0.4 mL and 0.38 mL and 0.37 mL and 0.35 mL and 0.34 mL and 0.32 mL and 0.31 mL and 0.3 mL (2×)
Hind paw volume ([3]; day 11 of study, group mean, n 10): 0.44 mL
Hind paw volume ([3]; day 11 of study, individual animal): 0.49 mL and 0.44 mL (2×) and 0.37 mL and 0.38 mL and 0.59 mL and 0.4 mL (2×) and 0.45 mL and 0.41 mL
Hind paw volume ([3]; day 12 of study, group mean, n 10): 0.44 mL
Hind paw volume ([3]; day 12 of study, individual animal): 0.58 mL and 0.44 mL and 0.35 mL and 0.42 mL and 0.46 mL and 0.49 mL and 0.45 mL and 0.39 mL (2×) and 0.4 mL
Hind paw volume ([3]; day 13 of study, group mean, n 10): 0.42 mL
Hind paw volume ([3]; day 13 of study, individual animal): 0.58 mL and 0.41 mL (2×) and 0.36 mL and 0.33 mL and 0.49 mL and 0.39 mL and 0.35 mL and 0.43 mL and 0.4 mL
Hind paw volume ([3]; day 16 of study, group mean, n 10): 0.38 mL
Hind paw volume ([3]; day 16 of study, individual animal): 0.45 mL and 0.46 mL and 0.34 mL and 0.37 mL and 0.43 mL and 0.41 mL and 0.33 mL (2×) and 0.32 mL and 0.3 mL
Hind paw volume ([3]; day 19 of study, group mean, n 10): 0.42 mL
Hind paw volume ([3]; day 19 of study, individual animal): 0.61 mL and 0.43 mL and 0.4 mL and 0.47 mL (2×) and 0.32 mL and 0.42 mL and 0.35 mL and 0.33 mL and 0.36 mL
Hind paw volume ([3]; day 22 of study, group mean, n 10): 0.38 mL
Hind paw volume ([3]; day 22 of study, individual animal): 0.55 mL and 0.41 mL (2×) and 0.34 mL (2×) and 0.39 mL and 0.36 mL (3×) and 0.32 mL
% Disease Suppression ([3]; group mean, n 10): 61.66%
Total Disease Burden (AUC) ([3]; group mean, n 10): 0.74
% Disease Suppression ([3]; individual animal): 16.3% and 74.3% and 109.8% and 81.9% and 52.3% and 49.7% and 69.4% and 70.2% and 29.0% and 63.7%
Total Disease Burden (AUC) ([3]; individual animal): 1.62 and 0.58 (2×) and −0.19 and 0.35 and 0.92 and 0.97 and 0.59 and 1.37 and 0.70
Maximum Δ Mean Volume ([3]; difference between mean combined foot pad volumes on day 8 and on median day of maximal swelling, vehicle 0.21): 0.13** ml
Mean Disease Burden ([3]; group mean AUC of combined footpad volume over baseline, days 8 to 22, vehicle 1.93): 0.74**
% Disease Suppression (vs Vehicle) ([3]; percent decrease in total disease burden relative to vehicle): 61.7%
